What was measured:
subcutaneous CT26 tumors = type: in vivo, BALB/c mice; conditions: injection of the agent instead of TNF-α
Procedure: All animal experiments were overseen and approved by the Animal Welfare Committee of Johns Hopkins University, and were in compliance with the University standards. For the subcutaneous tumor model, female, six to eight week-old BALB/c mice (Harlan Breeders) were used. Five million CT26 cells were injected subcutaneously into the right flank of each mouse and allowed to grow for ˜10 days before randomization, group assignment, and treatment. C. novyi-NT spores were administered by a bolus tail vein injection of 300 million spores suspended in 0.2 mL of phosphate buffered saline, pH 7.5 (PBS). Cytotoxic anticancer agents were administered 16 hours later via the same route. TNF-α was reconstituted freshly before administration in doubly-distilled H2O at 100 ng/mL and diluted into 0.1% (w/v) BSA in PBS at a final concentration of 10 ng/mL. Cytotoxic agents were injected within a few minutes thereafter. Tumor volume was calculated as […]. For the orthotopic brain tumor model, female C57BL6 mice, 5-6 weeks of age, were purchased from the NCI-Frederick. […] Animals were monitored for potential side effects following drug administration. […]

[1] = multiple injections (3 infusions/week) of a dose comparable to the highest mouse dose; cited from earlier work
CT26 tumors = assay: Treatment of fully developed subcutaneous CT26 tumors (tumor volume, survival); type: in vivo, BALB/c mice; conditions: TNF-α 25 ng/kg combined with Doxil or ^131I-labeled IgG
Procedure: For the subcutaneous tumor model, female, six to eight week-old BALB/c mice (Harlan Breeders) were used. Five million CT26 cells were injected subcutaneously into the right flank of each mouse and allowed to grow for ˜10 days before randomization, group assignment, and treatment. C. novyi-NT spores were administered by a bolus tail vein injection of 300 million spores suspended in 0.2 mL of phosphate buffered saline, pH 7.5 (PBS). Cytotoxic anticancer agents were administered 16 hours later via the same route. TNF-α was reconstituted freshly before administration in doubly-distilled H2O at 100 ng/mL and diluted into 0.1% (w/v) BSA in PBS at a final concentration of 10 ng/mL. Cytotoxic agents were injected within a few minutes thereafter. Tumor volume was calculated as length×width×0.5.

Molecule | induction of E^2PR by microtubule-interacting agent (subcutaneous CT26 tumors) | tolerability in humans [1] | cures and survival at lower dose of TNF-α (CT26 tumors)
COc1ccc(/C=C\c2cc(OC)c(OC)c(OC)c2)cc1OP(=O)(O)O [Combretastatin A4P, combretastatin A4 phosphate] | resulted in E^2PR, though not as impressively as TNF-α |  | 
TNF-α |  | tolerate | none of the treated animals were cured, although prolonged survival was observed
CCC1=C[C@@H]2CN(C1)Cc1c([nH]c3ccccc13)[C@@](C(=O)OC)(c1cc3c(cc1OC)N(C)[C@H]1[C@@](O)(C(=O)OC)[C@H](OC(C)=O)[C@]4(CC)C=CCN5CC[C@]31[C@@H]54)C2 [vinorelbine] | resulted in E^2PR, though not as impressively as TNF-α |  | 

— US20130323167A1, “DETECTING AND TREATING SOLID TUMORS THROUGH SELECTIVE DISRUPTION OF TUMOR VASCULATURE” (THE JOHNS HOPKINS UNIVERSITY, priority 2010, published 2013)
